Data reported in article PMC7168327, “Designed Antimicrobial Peptides for Topical Treatment of Antibiotic Resistant Acne Vulgaris” (Antibiotics, 2020).
≈ marks a conversion by molar mass, not a printed value. Where “and” joins values, the source holds several entries; their conditions need not be identical. Equal values may be shown once. Read-outs that look alike come from different tables or passages of the source. Bridge positions count the residues as written; N and C are the ends. Square brackets hold non-standard residues; d marks the D form. Peptide text beside a SMILES is read from it. Orn = NCCC[C@H](N)C(=O)O

Tests used:
[1] = test system: ten C. acnes clinical isolates and two C. acnes ATCC reference strains; type: cell-based, Cutibacterium acnes; conditions: for in vitro anti-bacterial activity against the C. acnes bacterial strains (in words): 0.5–32 μg/mL concentration range evaluated
Protocol: (§1) The ten antibiotic resistant C. acnes clinical isolates were acquired from BEI resources with the two reference strains obtained from American Type Culture Collection (ATCC, Manassas, VA, USA). C. acnes is a relatively slow-growing, typically aerotolerant anaerobic so all in vitro C. acnes experiments were performed under anaerobic conditions.
(§2) Single colonies were inoculated in Reinforced Clostridium Medium (RCM) broth supplemented with sodium thioglycolate and incubated at 37 °C, with shaking at 200 rpm, for 2 or 3 days to reach logarithmic growth (OD600nm = 1.0). Each C. acnes (1 × 10^6 CFU per mL) was incubated with dAMP or clindamycin at two-fold serial dilutions (0.5–32 μg per mL) in RCM on a 96-well microplate for 48 h. Three replicas were included for each test article concentration. Bacterial growth was measured by optical density at 600 nm to determine the MIC for each dAMP applied.

C. acnes ATCC11827 = type: cell-based, Cutibacterium acnes
Protocol: as §1, §2

C. acnes HL053PA1 = type: cell-based, Cutibacterium acnes
Protocol: as §1, §2

C. acnes HL072PA1 = type: cell-based, Cutibacterium acnes
Protocol: as §1, §2

C. acnes HL056PA1 = type: cell-based, Cutibacterium acnes
Protocol: as §1, §2

C. acnes HL038PA1 = type: cell-based, Cutibacterium acnes
Protocol: as §1, §2

C. acnes HL043PA2 = type: cell-based, Cutibacterium acnes
Protocol: as §1, §2

C. acnes HL045PA1 = type: cell-based, Cutibacterium acnes
Protocol: as §1, §2

C. acnes HL082PA2 = type: cell-based, Cutibacterium acnes
Protocol: as §1, §2

C. acnes HL013PA1 = type: cell-based, Cutibacterium acnes
Protocol: as §1, §2

C. acnes HL007PA1 = type: cell-based, Cutibacterium acnes
Protocol: as §1, §2

C. acnes ATCC6919 = type: cell-based, Cutibacterium acnes
Protocol: as §1, §2

C. acnes HL043PA1 = type: cell-based, Cutibacterium acnes
Protocol: as §1, §2

[2] = test system: bioluminescent human immortalized keratinocytes (HaCaT); assay: Mammalian cytotoxicity, bioluminescent human keratinocytes; type: cell-based; conditions: for EC50, concentration required to kill 50% of human keratinocytes: 8 h
Protocol: (§3) Noninvasive and real-time monitoring of mammalian cytotoxicity to assess the potential skin toxicity of the dAMPs was evaluated using bioluminescent human immortalized keratinocytes (HaCaT, AddexBio, San Diego, CA, USA). The bioluminescent variant of HaCaT was constructed by transfection with a luciferase gene (RediFect Red-Fluc-Puromycin, Cat# CL596002). Keratinocytes (1 × 10^4 cells, 100 μL) were plated in 96-well black-walled plates. The candidate dAMPs were 2-fold serially diluted from 1024 µg/mL in growth medium supplemented with 150 µg/mL D-luciferin. Each concentration was performed in triplicate, with the final volume being 200 μL. Imaging was performed at select times (0, 15, and 30 min and 1, 3, 5, and 8 h) after the addition of the dAMP, and compared to concurrently run vehicle-control, using an IVIS Lumina imaging system (Caliper Life Sciences, Inc., Hopkinton, MA, USA). For imaging, the 96-well plate was positioned on the stage (12.5-cm field of view), with an open emission filter, binning of 4, and f-stop 1 and a 1-min exposure time. Data analysis was performed using the Living Image software program (version 4.3, Caliper Life Sciences, Inc.). The dAMP concentrations required to kill 10% and 50% of keratinocytes were determined using GraphPad Prism 7 (GraphPad Software, San Diego, CA, USA).

[3] = test system: C. acnes HL043PA2 compared to human keratinocytes; type: cell-based
Protocol: In evaluating the clinical utility of each of the candidate dAMPs for C. acnes treatment, the Therapeutic Index was determined. The Therapeutic Index is defined as the ratio of concentration at which the dAMP is active against the prokaryotic C. acnes pathogen without inducing cytotoxic damage to the surrounding mammalian cells. The EC10 and EC50 doses, defined as the concentrations required to kill 10% and 50% respectively of human keratinocytes following 8 h incubation with each of the Riptide dAMPs, are tabulated and graphed in Table 2 and Figure 3, respectively. The larger the Therapeutic Index, the greater the specificity of the dAMP for destroying C. acnes cells.
as §2, §3

SMILES	in vitro anti-bacterial activity against the C. acnes bacterial strains (in words) [1]	MIC (C. acnes ATCC11827; ATCC11827, 48 h)	MIC (C. acnes HL053PA1; HL053PA1, 48 h)	MIC (C. acnes HL072PA1; HL072PA1, 48 h)	MIC (C. acnes HL056PA1; HL056PA1, 48 h)	MIC (C. acnes HL038PA1; HL038PA1, 48 h)	MIC (C. acnes HL043PA2; HL043PA2, 48 h)	MIC (C. acnes HL045PA1; HL045PA1, 48 h)	MIC (C. acnes HL082PA2; HL082PA2, 48 h)	MIC (C. acnes HL013PA1; HL013PA1, 48 h)	MIC (C. acnes HL007PA1; HL007PA1, 48 h)	MIC (C. acnes ATCC6919; ATCC6919, 48 h)	MIC (C. acnes HL043PA1; HL043PA1, 48 h)	EC50, concentration required to kill 50% of human keratinocytes [2]	Therapeutic Index (EC50 / MIC) ([3]; 8 h)	also measured
CC[C@H](C)[C@@H]1NC(=O)CNC(=O)[C@H](CCCCN)NC(=O)[C@H](Cc2ccc(O)cc2)NC(=O)[C@@H]2CSSC[C@H](NC1=O)C(=O)N[C@@H](Cc1ccccc1)C(=O)N[C@@H](CCCCN)C(=O)N[C@@H](CCCCN)C(=O)N[C@H](C(=O)N[C@@H](CCCCN)C(N)=O)CSSC[C@H](NC(=O)[C@H](Cc1ccccc1)NC(=O)[C@@H](N)CCCNC(=N)N)C(=O)N[C@@H](Cc1c[nH]c3ccccc13)C(=O)N[C@@H](CCCCN)C(=O)N[C@@H](C(C)C)C(=O)N2 [RP557] (H-RFCWKVCYKGICFKKCK-NH2; disulfide 3-16, 7-12)	most active															MIC values against all C. acnes isolates ([1]; span over ten antibiotic resistant isolates and two ATCC reference strains): 2 to 8 µg/mL; MIC (C. acnes ATCC11827; C. acnes ATCC11827, RCM broth, anaerobic, 1 × 10^6 CFU per mL, two-fold dilutions 0.5–32 μg/mL, 48 h, OD 600 nm, mean of three replicates): 8 µg/mL (≈ 3.75 µM); MIC (C. acnes HL053PA1; C. acnes HL053PA1, RCM broth, anaerobic, 1 × 10^6 CFU per mL, two-fold dilutions 0.5–32 μg/mL, 48 h, OD 600 nm, mean of three replicates): 4 µg/mL (≈ 1.87 µM); MIC (C. acnes HL072PA1; C. acnes HL072PA1, RCM broth, anaerobic, 1 × 10^6 CFU per mL, two-fold dilutions 0.5–32 μg/mL, 48 h, OD 600 nm, mean of three replicates): 8 µg/mL (≈ 3.75 µM); MIC (C. acnes HL056PA1; C. acnes HL056PA1, RCM broth, anaerobic, 1 × 10^6 CFU per mL, two-fold dilutions 0.5–32 μg/mL, 48 h, OD 600 nm, mean of three replicates): 4 µg/mL (≈ 1.87 µM); MIC (C. acnes HL038PA1; C. acnes HL038PA1, RCM broth, anaerobic, 1 × 10^6 CFU per mL, two-fold dilutions 0.5–32 μg/mL, 48 h, OD 600 nm, mean of three replicates): 8 µg/mL (≈ 3.75 µM); MIC (C. acnes HL043PA2; C. acnes HL043PA2 (multi-drug resistant), RCM broth, anaerobic, 1 × 10^6 CFU per mL, two-fold dilutions 0.5–32 μg/mL, 48 h, OD 600 nm, mean of three replicates): 8 µg/mL (≈ 3.75 µM); MIC (C. acnes HL045PA1; C. acnes HL045PA1, RCM broth, anaerobic, 1 × 10^6 CFU per mL, two-fold dilutions 0.5–32 μg/mL, 48 h, OD 600 nm, mean of three replicates): 4 µg/mL (≈ 1.87 µM); MIC (C. acnes HL082PA2; C. acnes HL082PA2, RCM broth, anaerobic, 1 × 10^6 CFU per mL, two-fold dilutions 0.5–32 μg/mL, 48 h, OD 600 nm, mean of three replicates): 2 µg/mL (≈ 0.936 µM); MIC (C. acnes HL013PA1; C. acnes HL013PA1, RCM broth, anaerobic, 1 × 10^6 CFU per mL, two-fold dilutions 0.5–32 μg/mL, 48 h, OD 600 nm, mean of three replicates): 2 µg/mL (≈ 0.936 µM); MIC (C. acnes HL007PA1; C. acnes HL007PA1, RCM broth, anaerobic, 1 × 10^6 CFU per mL, two-fold dilutions 0.5–32 μg/mL, 48 h, OD 600 nm, mean of three replicates): 8 µg/mL (≈ 3.75 µM); MIC (C. acnes ATCC6919; C. acnes ATCC6919, RCM broth, anaerobic, 1 × 10^6 CFU per mL, two-fold dilutions 0.5–32 μg/mL, 48 h, OD 600 nm, mean of three replicates): 8 µg/mL (≈ 3.75 µM); MIC (C. acnes HL043PA1; C. acnes HL043PA1, RCM broth, anaerobic, 1 × 10^6 CFU per mL, two-fold dilutions 0.5–32 μg/mL, 48 h, OD 600 nm, mean of three replicates): 8 µg/mL (≈ 3.75 µM); viability of human keratinocytes ([2]; 8 h incubation at 256 μg/mL, bioluminescent HaCaT): greater than 80%; EC10, concentration required to kill 10% of human keratinocytes ([2]; bioluminescent HaCaT, 1 × 10^4 cells/well, 8 h incubation, 2-fold dilutions from 1024 µg/mL, triplicate, IVIS imaging, GraphPad Prism 7): 246 µg/mL; Therapeutic Index (EC10 / MIC) ([3]; keratinocyte EC10 (8 h) versus MIC against HL043PA2 C. acnes): 30.8; Therapeutic Index (EC50 / MIC) ([3]; keratinocyte EC50 (8 h) versus MIC against HL043PA2 C. acnes): 35 and 35.1
CC[C@H](C)[C@H](NC(=O)[C@H](CCCN)NC(=O)[C@H](C)NC(=O)[C@H](CCCN)NC(=O)[C@H](CC(C)C)NC(=O)[C@H](CCCN)NC(=O)[C@@H](NC(=O)[C@H](CCCN)NC(=O)[C@@H](NC(=O)[C@H](CCCN)NC(=O)[C@H](C)NC(=O)[C@H](CCCN)NC(=O)[C@H](CC(C)C)NC(=O)[C@H](CCCN)NC(=O)[C@@H](N)Cc1ccccc1)[C@@H](C)CC)C(C)C)C(=O)N[C@@H](CCCN)C(=O)N[C@@H](CC(C)C)C(N)=O [RP554] (H-F[Orn]L[Orn]A[Orn]I[Orn]V[Orn]L[Orn]A[Orn]I[Orn]L-NH2)	most active	8 µg/mL (≈ 4.25 µM)	4 µg/mL (≈ 2.12 µM)	8 µg/mL (≈ 4.25 µM)	4 µg/mL (≈ 2.12 µM)	8 µg/mL (≈ 4.25 µM)	8 µg/mL (≈ 4.25 µM)	4 µg/mL (≈ 2.12 µM)	8 µg/mL (≈ 4.25 µM)	2 to 4 µg/mL	4 µg/mL (≈ 2.12 µM)	4 µg/mL (≈ 2.12 µM)	4 µg/mL (≈ 2.12 µM)	31 µg/mL	3.88	MIC values against all C. acnes isolates ([1]; ten clinical isolates and two ATCC reference strains, 48 h): 2 to 8 µg/mL; Therapeutic Index (EC10 / MIC) ([3]; 8 h): 2.38
CC[C@H](C)[C@H](NC(=O)[C@H](CCCN)NC(=O)[C@H](CC(C)C)NC(=O)[C@H](CCCNC(=N)N)NC(=O)[C@@H](N)Cc1ccccc1)C(=O)N[C@@H](CCCCN)C(=O)N[C@@H](C)C(=O)N[C@@H](CCCN)C(=O)N[C@@H](CC(C)C)C(=O)N[C@@H](CCCCN)C(=O)N[C@H](C(=O)N[C@@H](CCCN)C(=O)N[C@H](C(=O)N[C@@H](CCCNC(=N)N)C(=O)N[C@@H](Cc1ccccc1)C(=O)N[C@@H](CCCCN)C(=O)N[C@@H](CC(C)C)C(N)=O)[C@@H](C)CC)C(C)C [RP568] (H-FRL[Orn]IKA[Orn]LKV[Orn]IRFKL-NH2)	negligible activity	>32 µg/mL	>32 µg/mL	>32 µg/mL	>32 µg/mL	>32 µg/mL	>32 µg/mL	>32 µg/mL	>32 µg/mL	>32 µg/mL	>32 µg/mL	>32 µg/mL	>32 µg/mL	229 µg/mL	7.16	
